Laboratory results published in patent US5214047A, “Tetracyclic quinazoline derivatives, effective as antiarrythmic agents” (priority 1987, dated 1993).

System: QT interval
Test: QT interval prolongation (ECG, class III action) in anesthetized guinea pigs
Assay type: in vivo, Pirbright white guinea pigs
Conditions: Cavia porcellus; guinea pigs, urethane anesthesia, intravenous; dose for 20% QT prolongation calculated from log dose (mg/kg) vs relative QT prolongation; read-out: Prolongation of the QT interval ED20%
Method: The action of the novel substances has been tested as follows:
The experimental animals used were male and female Pirbright white guinea pigs weighing 300-500 g. 1.5 g/kg urethane i.p. were used for anesthesia. The substances were administered intravenously. The extremity lead II was recorded to measure the ECG conduction times and the heart rate. The measured variables were the QT and PQ intervals and the heart rate. 4-6 animals were used for each dose. The criterion for a class III action was an increase in the QT interval compared with the values before administration of the substance. A PQ increase and a large decrease in the heart rate were used as exclusion criteria. The ED20% is calculated from the linear relation between log dose (mg/kg) of the substance and the relative prolongation of the QT interval (Δ%).

## CC(C)NC[C@@H](O)c1ccc(NS(C)(=O)=O)cc1 [d-sotalol, reference compound]
  ED (20%): 3.6 mg/kg
